Data published in patent US20110224250A1, “ISOQUINOLINE DERIVATIVE, AND PDE INHIBITOR COMPRISING SAME AS ACTIVE INGREDIENT” (priority 2008, published 2011).

Tests used:
PDE3A catalytic zone = target: T1, PDE3A catalytic zone (Homo sapiens, UniProt Q14432); test: Phosphodiesterase-inhibitory activity, PDE3; assay type: biochemical; conditions: human-derived recombinant PDE protein, [3H]-cAMP, 30° C. for 20 minutes; read-out: IC50 (μmol/L) PDE3
T1 construct: Regarding the cDNAs of the PDE3A catalytic zone; made in house; host or cells: Sf9 insect cells (baculovirus, Bac-to-Bac / Gateway)
T1 sequence (Q14432 674-1093 limits assumed): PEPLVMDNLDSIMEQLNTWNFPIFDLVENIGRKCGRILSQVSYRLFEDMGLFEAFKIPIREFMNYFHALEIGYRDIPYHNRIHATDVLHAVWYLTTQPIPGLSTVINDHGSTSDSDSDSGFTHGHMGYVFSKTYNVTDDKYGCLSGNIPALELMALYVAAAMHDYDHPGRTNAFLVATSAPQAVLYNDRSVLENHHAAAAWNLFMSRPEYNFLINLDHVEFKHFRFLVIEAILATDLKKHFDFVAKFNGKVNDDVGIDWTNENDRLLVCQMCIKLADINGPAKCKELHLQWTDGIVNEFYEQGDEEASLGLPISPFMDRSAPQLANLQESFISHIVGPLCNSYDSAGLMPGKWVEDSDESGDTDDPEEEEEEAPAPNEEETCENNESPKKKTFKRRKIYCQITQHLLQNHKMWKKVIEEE

PDE4Bcat = target: T2, PDE4Bcat (Homo sapiens, UniProt Q07343); test: Phosphodiesterase-inhibitory activity, PDE4; assay type: biochemical; conditions: human-derived recombinant PDE protein, [3H]-cAMP, 30° C. for 20 minutes; read-out: IC50 (μmol/L) PDE4
T2 construct: made in house; host or cells: Sf9 insect cells (baculovirus, Bac-to-Bac / Gateway)
T2 sequence (Q07343 330-659 limits assumed): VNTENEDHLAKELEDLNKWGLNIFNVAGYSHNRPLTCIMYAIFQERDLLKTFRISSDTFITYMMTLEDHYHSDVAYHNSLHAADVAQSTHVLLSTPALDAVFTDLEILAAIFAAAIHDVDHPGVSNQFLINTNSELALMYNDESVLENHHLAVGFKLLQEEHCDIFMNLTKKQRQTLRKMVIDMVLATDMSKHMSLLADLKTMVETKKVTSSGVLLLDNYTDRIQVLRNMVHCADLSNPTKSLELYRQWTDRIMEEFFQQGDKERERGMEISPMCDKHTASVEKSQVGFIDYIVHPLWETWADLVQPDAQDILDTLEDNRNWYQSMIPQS

| SMILES | IC50 (PDE3A catalytic zone) [µmol/L] | IC50 (PDE4Bcat) [µmol/L] |
| --- | --- | --- |
| COc1ccc(-c2ccc3cnccc3c2)c2cc(C(F)(F)F)nn12 [Example 47, 6-(7-Methoxy-2-trifluoromethylpyrazolo[1,5-a]pyridin-4-yl)isoquinoline] | ≥ 100 | < 0.01 |
| COc1ccc(-c2ccc3cnccc3c2)n2c(Cl)c(C(F)(F)F)nc12 [Example 57, 6-(3-Chloro-8-methoxy-2-trifluoromethylimidazo[1,2-a]pyridin-5-yl)isoquinoline] | ≥ 100 | < 0.01 |
| CNc1ccc(-c2ccc3cnccc3c2)c2c(Cl)c(C(F)(F)F)nn12 [Example 56, 3-Chloro-4-(isoquinolin-6-yl)-N-methyl-2-trifluoromethylpyrazolo[1,5-a]pyridine-7-amine] | ≥ 100 | < 0.01 |
| COc1ccc(-c2ccc3cncc(Cl)c3c2)c2c(Cl)c(C(F)(F)F)nn12 [Example 52, 4-Chloro-6-(3-chloro-7-methoxy-2-trifluoromethylpyrazolo[1,5-a]pyridin-4-yl)isoquinoline] | ≥ 100 | < 0.01 |
| COc1ccc(-c2ccc3cnccc3c2Cl)c2cc(C(F)(F)F)nn12 [Example 50, 5-Chloro-6-(7-methoxy-2-trifluoromethylpyrazolo[1,5-a]pyridin-4-yl)isoquinoline] | 1 to 100 | < 0.01 |
| CNc1ccc(-c2ccc3cnccc3c2)n2c(Cl)c(C(F)(F)F)nc12 [Example 58, 3-Chloro-5-(isoquinolin-6-yl)-N-methyl-2-trifluoromethylimidazo[1,2a]pyridine-8-amine] | ≥ 100 | < 0.01 |
| COc1ccc(-c2ccc3cncc(Cl)c3c2)c2cc(C(F)(F)F)nn12 [Example 49, 4-Chloro-6-(7-methoxy-2-trifluoromethylpyrazolo[1,5-a]pyridin-4-yl)isoquinoline] | 1 to 100 | < 0.01 |
| COc1ccc(-c2ccc3cnccc3c2)c2cc(C3CC3)nn12 [Example 53, 6-(2-Cyclopropyl-7-methoxypyrazolo[1,5-a]pyridin-4-yl)isoquinoline] | 1 to 100 | < 0.01 |
| CCc1cc2c(-c3ccc4cnccc4c3)ccc(OC)n2n1 [Example 54, 6-(2-Ethyl-7-methoxypyrazolo[1,5-a]pyridin-4-yl)isoquinoline] | 1 to 100 | < 0.01 |
| COc1ccc(-c2ccc3c[n+]([O-])ccc3c2)c2cc(C(F)(F)F)nn12 [Example 48, 6-(7-Methoxy-2-trifluoromethylpyrazolo[1,5-a]pyridin-4-yl)isoquinoline 2-oxide] | 1 to 100 | < 0.01 |
| COc1ccc(-c2ccc3cnccc3c2)c2c(Cl)c(C(F)(F)F)nn12 [Example 51, 6-(3-Chloro-7-methoxy-2-trifluoromethylpyrazolo[1,5-a]pyridin-4-yl)isoquinoline] | ≥ 100 | < 0.01 |
| CNc1ccc(-c2ccc3cnccc3c2)c2cc(C(F)(F)F)nn12 [Example 55, 4-(Isoquinolin-6-yl)-N-methyl-2-trifluoromethylpyrazolo[1,5-a]pyridine-7-amine] | ≥ 100 | < 0.01 |
| COc1ccc(-c2ccc3cnccc3c2)c2cccnc12 [Example 59, 5-(Isoquinolin-6-yl)-8-methoxyquinoline] | 1 to 100 | < 0.01 |
